Experimental data taken from publication PMC11111408, “Concurrent inhibition of oncogenic and wild-type RAS-GTP for cancer therapy” (Nature, 2024).
“And” between values parts separate entries of the source, which are not always exact repeats. Identical values can stand only once.

Experiments:
[1] = biological target: NRAS WT (Homo sapiens, UniProt P01111+P62937); assay: RAS binding affinity of compound-bound CYPA (Kd2), SPR; conditions: steady state SPR, (95% CI)
[2] = biological target: NRAS^Q61R (Homo sapiens, UniProt P01111+P62937, Q61R); assay: as above; conditions: steady state SPR, (95% CI)
[3] = biological target: RAS; assay: Binding of the CYPA–RMC-7977 binary complex to RAS (Kd2), SPR; design: species or system human; conditions: all three wild-type RAS proteins
Description: The basic nitrogen of the piperazine forms a cation–π interaction with W121. e, Oriented by the hydrogen bond to CYPA W121, RAS Y64 forms π-stacking interactions with the pyridine and indole groups. […] Data are mean ± s.d. of independent experiments (KRAS variants (green): wild-type (WT) KRAS, n = 4; KRAS(G12C), KRAS(G12D), KRAS(G12R), KRAS(G12V), KRAS(G13D), n = 6; NRAS variants (blue): NRAS(WT), NRAS(Q61L), n = 4; NRAS(Q61K), NRAS(Q61R), n = 6; HRAS variants (purple): HRAS(WT), n = 5; HRAS(G13R), n = 6; slope = 0.99, 95% confidence interval: 0.8–1.2, R^2 = 0.99; values also shown in Extended Data Tables 1–3).
The binding affinity of compound-bound CYPA for the mutant oncogenic RAS proteins (Kd2) mentioned was assessed by SPR on a Biacore 8 K instrument. […] The SPR sensorgrams were fit using either a steady state affinity model or a 1:1 binding (kinetic) model to assess the dissociation constant (Kd) for RAS binding.

[4] = system: NCI-H358 cells (CYPA-high, CYPA-low); assay: Proliferation (CTG) of NCI-H358 cells with low or high CYPA; assay type: cell-based, human
Description: Data points show biological duplicates normalized to vehicle control. […] Data points show biological duplicates normalized to vehicle control from 1 of 2–26 independent experiments. Source Data
Alternatively, cells were seeded in round-bottom ultra-low attachment 96-well plates, centrifuged at 1,000 rpm for 10 min to pellet the cells, and incubated overnight or up to 72 h to allow for 3D spheroid formation. […] Cell viability was determined by CellTiter-Glo 2.0 reagent (2D CTG) (Promega, G9243) or 3D CellTiter-Glo reagent (3D CTG) (Promega, G9683) according to the manufacturer’s protocols. Luminescence was detected using a SpectraMax M5 Plate Reader (Molecular Devices) of Perkin Elmer Enspire. Luminescence signal was normalized to vehicle-treated wells (normalized signal (%) = (luminescence (treated)/mean luminescence (vehicle)) × 100%). […] Data were plotted as log [inhibitor (M)], and a four-parameter sigmoidal concentration response model was fitted to the data to calculate EC50. […] Pa16C MEK1 mutant cells were evaluated by live-cell counting using Calcein AM and a SpectraMax i3X multi-mode detection platform (Molecular Devices). Growth percentages were calculated by normalizing the treated cell counts to their respective untreated cell counts.

[5] = system: KRAS^G12X PDAC, CRC and NSCLC xenograft models; assay: Panel of 15 KRAS^G12X CDX and PDX xenograft models; assay type: in vivo, mouse; conditions: for % Tumor Volume Change: 10 mg/kg
Description: Xenograft studies were conducted at GenenDesign, Pharmaron, Wuxi AppTec, the laboratory of P. Lito, and the laboratory of C. Ambrogio. […] All procedures related to animal handling, care and treatment were conducted in compliance with all applicable regulations and guidelines of the relevant Institutional Animal Care and Use Committee (IACUC). […] Experimental details are supplied in the Supplementary Methods.

[6] = biological target: KRAS WT (Homo sapiens, UniProt P01116+P62937); assay: Biochemical RAS–RAF (BRAF RBD) disruption, TR-FRET; design: made in house; host or cells: BL21(DE3) Escherichia coli
Description: (§1) Time-resolved fluorescence resonance energy transfer (TR-FRET) was used as previously described to assess disruption of the interactions between wild-type RAS or the mutant oncogenic RAS proteins and the RAS-binding domain of BRAF, and to assess the induction of interactions between the RAS proteins and CYPA[12].

[7] = biological target: KRAS^G12D (Homo sapiens, UniProt P01116+P62937, G12D); assay: Biochemical RAS–RAF (BRAF RBD) disruption, TR-FRET; design: made in house; host or cells: BL21(DE3) Escherichia coli; conditions: (95% CI)
Description: as §1

[8] = biological target: KRAS^G12R (Homo sapiens, UniProt P01116+P62937, G12R); assay: Biochemical RAS–RAF (BRAF RBD) disruption, TR-FRET; design: made in house; host or cells: BL21(DE3) Escherichia coli; conditions: (95% CI)
Description: as §1

CCn1c(-c2cc(N3CCN(C4CC4)CC3)cnc2[C@H](C)OC)c2c3cc(ccc31)-c1csc(n1)C[C@H](NC(=O)[C@H]1[C@@H]3COC[C@@H]31)C(=O)N1CCC[C@H](N1)C(=O)OCC(C)(C)C2 [RMC-7977]
Kd [1]: 0.101 µM | Kd [2]: 0.239 µM | Kd [3]: ~0.1 µM | sensitivity of CYPA-high versus CYPA-low cells, inhibition of cell proliferation ([4]; NCI-H358, doxycycline-inducible CYPA, 120 h): eightfold | Proliferation, H358 CypA high (+ 0.1 µg/ml dox) ([4]; RMC-7977 0.0152 nM): 114.566 and 114.478 and 102.697 and 95.6358 | Proliferation, H358 CypA high (- dox) ([4]; RMC-7977 0.0152 nM): 114.881 and 112.875 and 101.544 and 96.9285 | Proliferation, H358 CypA low (+ 0.1 µg/ml dox) ([4]; RMC-7977 0.0152 nM): 109.975 and 111.873 and 103.465 and 96.8877 | Proliferation, H358 CypA low (- dox) ([4]; RMC-7977 0.0152 nM): 131.295 and 170.353 and 103.153 and 109.53 | Proliferation, H358 CypA high (+ 0.1 µg/ml dox) ([4]; RMC-7977 0.0457 nM): 102.073 and 87.0456 | Proliferation, H358 CypA high (- dox) ([4]; RMC-7977 0.0457 nM): 94.1146 and 92.3438 | Proliferation, H358 CypA low (+ 0.1 µg/ml dox) ([4]; RMC-7977 0.0457 nM): 104.393 and 103.775 | Proliferation, H358 CypA low (- dox) ([4]; RMC-7977 0.0457 nM): 101.295 and 103.944 | Proliferation, H358 CypA high (+ 0.1 µg/ml dox) ([4]; RMC-7977 0.41 nM): 40.4066 and 38.4296 | Proliferation, H358 CypA high (- dox) ([4]; RMC-7977 0.41 nM): 99.8914 and 99.4838 | Proliferation, H358 CypA low (+ 0.1 µg/ml dox) ([4]; RMC-7977 0.41 nM): 94.3293 and 90.7108 | Proliferation, H358 CypA low (- dox) ([4]; RMC-7977 0.41 nM): 110.992 and 108.667 | Proliferation, H358 CypA high (+ 0.1 µg/ml dox) ([4]; RMC-7977 3.70 nM): 4.175 and 3.964 | Proliferation, H358 CypA high (- dox) ([4]; RMC-7977 3.70 nM): 92.1373 and 96.6037 | Proliferation, H358 CypA low (+ 0.1 µg/ml dox) ([4]; RMC-7977 3.70 nM): 44.8323 and 42.163 | Proliferation, H358 CypA low (- dox) ([4]; RMC-7977 3.70 nM): 108.382 and 108.201 | Proliferation, H358 CypA high (+ 0.1 µg/ml dox) ([4]; RMC-7977 11.11 nM): 1.059 and 0.9033 | Proliferation, H358 CypA high (- dox) ([4]; RMC-7977 11.11 nM): 92.3418 and 100.036 | Proliferation, H358 CypA low (+ 0.1 µg/ml dox) ([4]; RMC-7977 11.11 nM): 22.8241 and 21.8177 | Proliferation, H358 CypA low (- dox) ([4]; RMC-7977 11.11 nM): 112.468 and 108.323 | Proliferation, H358 CypA high (+ 0.1 µg/ml dox) ([4]; RMC-7977 33.33 nM): 0.7359 and 0.8327 | Proliferation, H358 CypA high (- dox) ([4]; RMC-7977 33.33 nM): 92.8182 and 94.1066 | Proliferation, H358 CypA low (+ 0.1 µg/ml dox) ([4]; RMC-7977 33.33 nM): 11.066 and 10.8911 | Proliferation, H358 CypA low (- dox) ([4]; RMC-7977 33.33 nM): 104.142 and 111.18 | Proliferation, H358 CypA high (+ 0.1 µg/ml dox) ([4]; RMC-7977 100.00 nM): 0.6202 and 0.4579 | Proliferation, H358 CypA high (- dox) ([4]; RMC-7977 100.00 nM): 94.8777 and 89.8025 | Proliferation, H358 CypA low (+ 0.1 µg/ml dox) ([4]; RMC-7977 100.00 nM): 7.141 and 7.102 | Proliferation, H358 CypA low (- dox) ([4]; RMC-7977 100.00 nM): 104.79 and 108.679 | Proliferation, H358 CypA high (+ 0.1 µg/ml dox) ([4]; RMC-7977 300.00 nM): 0.5256 and 0.2817 | Proliferation, H358 CypA high (- dox) ([4]; RMC-7977 300.00 nM): 83.7998 and 85.0113 | Proliferation, H358 CypA low (+ 0.1 µg/ml dox) ([4]; RMC-7977 300.00 nM): 5.455 and 5.338 | Proliferation, H358 CypA low (- dox) ([4]; RMC-7977 300.00 nM): 79.1522 and 100.975 | % Tumor Volume Change ([5]; CRC039, RMC-7977 10 mg/kg po qd, day 0 on study, individual animals): 241.9% and 219.3% and 159.4% | % Tumor Volume Change ([5]; CRC039, RMC-7977 10 mg/kg po qd, day 4 on study, individual animals): 220.3% and 125.3% and 145.8% | % Tumor Volume Change ([5]; CRC039, RMC-7977 10 mg/kg po qd, day 7 on study, individual animals): 121.8% and 118.8% and 123% | % Tumor Volume Change ([5]; CRC039, RMC-7977 10 mg/kg po qd, day 11 on study, individual animals): 74.4% and 112.7% and 94.2% | % Tumor Volume Change ([5]; CRC039, RMC-7977 10 mg/kg po qd, day 14 on study, individual animals): 80.2% and 106.6% and 94.1% | % Tumor Volume Change ([5]; CRC039, RMC-7977 10 mg/kg po qd, day 18 on study, individual animals): 81.1% | % Tumor Volume Change ([5]; PDAC G12D, BALB/c nude mice, 10 mg/kg po qd, day 0, individual animals): 153.24% and 151.4% | % Tumor Volume Change ([5]; PDAC G12D, BALB/c nude mice, 10 mg/kg po qd, day 3, individual animals): 209.83% and 173.4% | % Tumor Volume Change ([5]; PDAC G12D, BALB/c nude mice, 10 mg/kg po qd, day 7, individual animals): 163.81% and 154.57% | % Tumor Volume Change ([5]; PDAC G12D, BALB/c nude mice, 10 mg/kg po qd, day 14, individual animals): 89.27% and 198.15% | % Tumor Volume Change ([5]; PDAC G12D, BALB/c nude mice, 10 mg/kg po qd, day 17, individual animals): 109.93% and 119.08% | % Tumor Volume Change ([5]; PDAC G12D, BALB/c nude mice, 10 mg/kg po qd, day 21, individual animals): 193.02% and 99.24% | % Tumor Volume Change ([5]; PDAC G12D, BALB/c nude mice, 10 mg/kg po qd, day 24, individual animals): 160.39% and 128.81% | % Tumor Volume Change ([5]; PDAC G12D, BALB/c nude mice, 10 mg/kg po qd, day 28, individual animals): 162.11% and 110.97% | % Tumor Volume Change ([5]; PSN-1, BALB/c nude mice, 10 mg/kg po qd, day 0, individual animals): 179% and 166% | % Tumor Volume Change ([5]; PSN-1, BALB/c nude mice, 10 mg/kg po qd, day 3, individual animals): 154% and 97% | % Tumor Volume Change ([5]; PSN-1, BALB/c nude mice, 10 mg/kg po qd, day 7, individual animals): 134% and 82% | % Tumor Volume Change ([5]; PSN-1, BALB/c nude mice, 10 mg/kg po qd, day 10, individual animals): 126% and 70% | % Tumor Volume Change ([5]; PSN-1, BALB/c nude mice, 10 mg/kg po qd, day 14, individual animals): 117% and 66% | % Tumor Volume Change ([5]; PSN-1, BALB/c nude mice, 10 mg/kg po qd, day 17, individual animals): 116% and 65% | % Tumor Volume Change ([5]; PSN-1, BALB/c nude mice, 10 mg/kg po qd, day 21, individual animals): 121% and 60% | % Tumor Volume Change ([5]; PSN-1, BALB/c nude mice, 10 mg/kg po qd, day 24, individual animals): 131% and 55% | % Tumor Volume Change ([5]; PSN-1, BALB/c nude mice, 10 mg/kg po qd, day 28, individual animals): 132% | median time to tumour doubling ([5]; treatment up to 90 days, Kaplan–Meier analysis): did not reach a median time to tumour doubling | EC50 [6]: 0.077 µM | EC50 [7]: 0.176 µM | EC50 [8]: 0.123 µM
